From the SangsterLogP compilation

Work on `ClC(Cl)(Cl)c1nc(Nc2ccccc2)nc(C(Cl)(Cl)Cl)n1` yielded a logP of 4.39. `CN(C)c1nc(C(Cl)(Cl)Cl)nc(C(Cl)(Cl)Cl)n1` gave a logP of 4.94. `Cc1nc(N)nc(C(Cl)(Cl)Cl)n1` gave a logP of 1.77. In the case of `CNc1nc(C)nc(C(Cl)(Cl)Cl)n1`, the logP is reported as 2.39. With `CCCNc1nc(C(Cl)(Cl)Cl)nc(C(Cl)(Cl)Cl)n1` the logP was 4.09. Work on `Cc1nc(Nc2ccccc2)nc(C(Cl)(Cl)Cl)n1` yielded a logP of 3.41. Work on `CCCNc1nc(C)nc(C(Cl)(Cl)Cl)n1` yielded a logP of 3.29. Work on `COc1nc(C(Cl)(Cl)Cl)nc(C(Cl)(Cl)Cl)n1` yielded a logP of 3.64. Work on `Cc1nc(C(Cl)(Cl)Cl)nc(C(Cl)(Cl)Cl)n1` yielded a logP of 4.1. Work on `O=C1OC(=Nc2ccc(Cl)cc2)C2=C1CCCC2` yielded a logP of 3.81. `ClC(Cl)(Cl)c1nc(NCc2ccccc2)nc(C(Cl)(Cl)Cl)n1` showed a logP of 4.93. Compound `Cc1nc(NCc2ccccc2)nc(C(Cl)(Cl)Cl)n1` has a logP of 3.86. Compound `Nc1nc(C(Cl)(Cl)Cl)nc(C(Cl)(Cl)Cl)n1` has a logP of 2.48. With `Cc1nc(N(C)C)nc(C(Cl)(Cl)Cl)n1` the logP was 3.78. With `O=C1C2=C(CCCC2)C(=O)N1c1ccc(Cl)cc1` the logP was 3.26. Compound `CSc1nc(N)nc(C(Cl)(Cl)Cl)n1` has a logP of 3.12. For `CSc1nc(C(Cl)(Cl)Cl)nc(C(Cl)(Cl)Cl)n1`, the logP was 4.42. Compound `ClC(Cl)(Cl)c1nc(C(Cl)(Cl)Cl)nc(C(Cl)(Cl)Cl)n1` has a logP of 3.75. `CNc1nc(C(Cl)(Cl)Cl)nc(C(Cl)(Cl)Cl)n1` showed a logP of 3.23. Compound `Nc1nc(N)nc(C(Cl)(Cl)Cl)n1` has a logP of 1.24. `COc1nc(N)nc(C(Cl)(Cl)Cl)n1` showed a logP of 2.39.
